Here are results for 16 compounds from article PMC7470113, “Design, synthesis and biological evaluation of edaravone derivatives bearing the N-benzyl pyridinium moiety as multifunctional anti-Alzheimer’s agents” (Journal of Enzyme Inhibition and Medicinal Chemistry, 2020).

Like-named read-outs stand apart in the source and are kept apart here.

Experiment [1] has as its target T1, eeAChE (Electrophorus electricus, UniProt O42275).
T1 construct: purchased Sigma-Aldrich
In words: Cholinesterase inhibition assay (modified Ellman's method), eeAChE. As to conditions: for IC50: eeAChE, Ellman, 25 °C, triplicate, read-out: AChE IC50; for SI AChE (AChE selectivity index = IC50(eqBuChE)/IC50(eeAChE)): ratio BuChE/AChE. The class given is biochemical. How it is done:
(§1) . […] The test compounds and control were dissolved in DMSO and added to the well to yield various concentrations (1000 µM, 100 µM, 10 µM, 1 µM, 0.1 µM and 0.01 µM). The quantity of DMSO per well accumulated to below 0.01%[45]. Each concentration of test compound and control was conducted in triplicate to ensure consistent results. The well-plates were then incubated at 25 °C for 10 min. Thereafter, 30 µL of either the ATCI or BTCI substrate was added to each well. The plate was then placed inside a Rayto 6500 spectrometer and the absorbance was read at 405 nm every 45 s for 5 min. The percentage activity was calculated using the following equation: [(absorbance of blank − absorbance of test compounds)/absorbance of blank × 100)]. All data analysis was conducted on GraphPad Prism version 8.2.1 for Mac OS, GraphPad Software (San Diego, CA, USA)
(§2) The inhibitory activities of the synthesised compounds were evaluated using eeAChE (electric eel) and eqBuChE (equine serum) according to a modified method of Ellman[44]. […].

Experiment [2] can be described thus: DPPH+ free radical scavenging antioxidant assay. How it is done: Antioxidant activity was studied with the DPPH^+ free radical scavenging assay[46]^,[47]. DPPH^+ and trolox were purchased from Sigma-Aldrich®. The following method was employed, as previously described, to determine the antioxidant activity of the test compounds. Each well of a 96 well plate, contained the following: 180 µL of 0.12 mM DPPH^+ dissolved in methanol and 20 µL of either test compound, control (trolox) or blank (DMSO). The test compounds and control were dissolved in DMSO and added to the well to yield various concentrations (1000 µM, 100 µM, 10 µM, 1 µM and 0.1 µM). […] The well plate was incubated at 25 °C for 30 min within a dark space. […] The quantity of DMSO per well accumulated to below 0.01%[45]. […] The percentage activity was calculated using the following equation: [(absorbance of blank − absorbance of test compounds)/absorbance of blank × 100)]. All data analysis was conducted on GraphPad Prism version 8.2.1 for Mac OS, GraphPad Software (San Diego, California, USA).
The 2,2-diphenyl-1-picrylhydrazyl (DPPH^+) assay was employed to determine the antioxidant ability of the synthesised compounds.

The target in experiment [3] is T2, eqBuChE (Equus caballus, UniProt P81908).
T2 construct: purchased Sigma-Aldrich; host or cells: equine serum
Description: Cholinesterase inhibition assay (modified Ellman's method), eqBuChE. The class given is biochemical. As to conditions: 25 °C, triplicate, read-out: BuChE IC50. As to the method: as §1, §2
Background: In Ellman's method for cholinesterases, released thiocholine reacts with DTNB.

On the set-up of experiment [4]: method as in PMID 29907205. As to conditions: read-out: DPPH+ IC50 (antioxidant activity of edaravone); cited from earlier work. (In general: The DPPH test is a chemical assay of radical scavenging.)
Where [5] appears, read: 0.12 mM DPPH+ in methanol, 30 min, 25 °C, 517 nm, read-out: DPPH+ IC50.

T2 sequence (P81908 whole entry): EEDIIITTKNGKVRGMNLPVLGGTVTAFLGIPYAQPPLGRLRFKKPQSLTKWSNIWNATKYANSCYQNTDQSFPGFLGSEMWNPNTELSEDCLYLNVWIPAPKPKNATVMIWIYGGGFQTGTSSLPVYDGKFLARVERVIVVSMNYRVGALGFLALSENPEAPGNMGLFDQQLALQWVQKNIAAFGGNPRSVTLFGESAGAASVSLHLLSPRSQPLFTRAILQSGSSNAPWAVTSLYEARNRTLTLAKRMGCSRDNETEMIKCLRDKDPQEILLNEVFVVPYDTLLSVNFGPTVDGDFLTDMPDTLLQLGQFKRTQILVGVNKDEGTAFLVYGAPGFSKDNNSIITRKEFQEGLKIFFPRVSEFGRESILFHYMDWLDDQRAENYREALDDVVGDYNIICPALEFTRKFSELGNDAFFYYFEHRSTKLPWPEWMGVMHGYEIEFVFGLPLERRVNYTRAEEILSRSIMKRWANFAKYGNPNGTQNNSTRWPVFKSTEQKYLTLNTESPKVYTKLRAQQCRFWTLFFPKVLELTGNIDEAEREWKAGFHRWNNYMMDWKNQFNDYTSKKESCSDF
T1 sequence (O42275 24-633): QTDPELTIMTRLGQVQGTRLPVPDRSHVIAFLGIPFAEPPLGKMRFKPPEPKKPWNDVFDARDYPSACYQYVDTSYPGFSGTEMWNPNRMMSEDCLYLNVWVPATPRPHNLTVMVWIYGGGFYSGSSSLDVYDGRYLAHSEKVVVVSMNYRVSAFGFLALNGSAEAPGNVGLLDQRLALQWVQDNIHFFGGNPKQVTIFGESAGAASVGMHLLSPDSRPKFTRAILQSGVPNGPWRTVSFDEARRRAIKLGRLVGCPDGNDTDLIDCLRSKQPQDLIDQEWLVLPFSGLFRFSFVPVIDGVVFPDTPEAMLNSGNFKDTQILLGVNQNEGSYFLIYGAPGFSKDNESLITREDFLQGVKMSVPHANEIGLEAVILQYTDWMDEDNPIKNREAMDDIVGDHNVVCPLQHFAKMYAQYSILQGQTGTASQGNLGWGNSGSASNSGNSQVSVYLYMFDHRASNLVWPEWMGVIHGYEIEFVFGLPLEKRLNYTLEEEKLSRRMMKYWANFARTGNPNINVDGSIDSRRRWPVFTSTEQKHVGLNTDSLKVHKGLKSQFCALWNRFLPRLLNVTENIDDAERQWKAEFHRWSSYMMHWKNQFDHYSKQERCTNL

The IC50 is the concentration needed to halve the response being measured. Turning to `CC1=NN(c2ccc(C(=O)NCc3cc[n+](Cc4cccc(C)c4)cc3)cc2)C(=O)C1` [Compound 5k], the IC50 was 69.1 µM in experiment [1], 27.5 µM in experiment [2] (setting [5]) and over 1000 µM in experiment [3]. Besides, in experiment [1], the “SI AChE (AChE selectivity index = IC50(eqBuChE)/IC50(eeAChE))” value is over 15.

In the case of `CC1=NN(c2ccc(C(=O)NCc3cc[n+](Cc4ccc(F)cc4)cc3)cc2)C(=O)C1` [Compound 5d, 1-[(4-Fluorophenyl)methyl]-4-({[4–(3-methyl-5-oxo-4H-pyrazol-1-yl)phenyl]foramido}methyl)pyridin-1-ium bromide], the IC50 in experiment [1] was 3.6 µM; in experiment [2] (setting [5]), 11.5 µM; in experiment [3], over 1000 µM. Moreover, the “SI AChE (AChE selectivity index = IC50(eqBuChE)/IC50(eeAChE))” value in experiment [1] was over 278.

Consider `CC1=NN(c2ccc(C(=O)NCc3ccncc3)cc2)C(=O)C1` [Compound 3, 4–(3-Methyl-5-oxo-4H-pyrazol-1-yl)-N-(pyridine-4-ylmethyl)benzamide], for which the IC50 was over 100 µM in experiment [1], 12.5 µM in experiment [2] (setting [5]) and over 1000 µM in experiment [3].

As to `CC1=NN(c2ccc(C(=O)NCc3cc[n+](Cc4ccccc4)cc3)cc2)C(=O)C1` [Compound 5a, 1-Benzyl-4-({[4–(3-methyl-5-oxo-4H-pyrazol-1-yl)phenyl]foramido}methyl)pyridin-1-ium bromide], the figures for the IC50 in experiment [1], in experiment [2] (setting [5]) and in experiment [3] were 30 µM, 22.9 µM and over 1000 µM, respectively. Besides, the “SI AChE (AChE selectivity index = IC50(eqBuChE)/IC50(eeAChE))” value in experiment [1] was over 33.

Turning to `CC1=NN(c2ccc(C(=O)NCc3cc[n+](Cc4cccc(F)c4)cc3)cc2)C(=O)C1` [Compound 5c, 1-[(3-Fluorophenyl)methyl]-4-({[4–(3-methyl-5-oxo-4H-pyrazol-1-yl)phenyl]foramido}methyl)pyridin-1-ium bromide], the IC50 in experiment [1] stood at 4.6 µM; in experiment [2] (setting [5]), 25 µM; in experiment [3], 926 µM. Also, in experiment [1], the “SI AChE (AChE selectivity index = IC50(eqBuChE)/IC50(eeAChE))” value is recorded as 201.

Regarding `CC1=NN(c2ccc(C(=O)NCc3cc[n+](Cc4ccccc4C)cc3)cc2)C(=O)C1` [Compound 5j], the figures for the IC50 in experiment [1], in experiment [2] (setting [5]) and in experiment [3] were 19.9 µM, 9.5 µM and 630 µM, respectively. Further, in experiment [1], the “SI AChE (AChE selectivity index = IC50(eqBuChE)/IC50(eeAChE))” value is on record as 32.

As for `CC1=NN(c2ccc(C(=O)NCc3cc[n+](Cc4ccc(Br)cc4)cc3)cc2)C(=O)C1` [Compound 5i, 1-[(4-Bromophenyl)methyl]-4-({[4–(3-methyl-5-oxo-4H-pyrazol-1-yl)phenyl]foramido}methyl)pyridin-1-ium bromide], the IC50 is 11.5 µM in experiment [1], 18.1 µM in experiment [2] (setting [5]) and over 1000 µM in experiment [3]. In addition, in experiment [1], the “SI AChE (AChE selectivity index = IC50(eqBuChE)/IC50(eeAChE))” value is reported as over 87.

Turning to `CC1=NN(c2ccc(C(=O)O)cc2)C(=O)C1` [Compound 1, Edaravone-COOH], the IC50 in experiment [2] (setting [5]) was 45.7 µM.

`CC1=NN(c2ccc(C(=O)NCc3cc[n+](Cc4cccc(Cl)c4)cc3)cc2)C(=O)C1` [Compound 5f, 1-[(3-Chlorophenyl)methyl]-4-({[4–(3-methyl-5-oxo-4H-pyrazol-1-yl)phenyl]foramido}methyl)pyridin-1-ium bromide]: the figures for the IC50 in experiment [1], in experiment [2] (setting [5]) and in experiment [3] were 3.3 µM, 13.1 µM and 891 µM, respectively. The “SI AChE (AChE selectivity index = IC50(eqBuChE)/IC50(eeAChE))” value in experiment [1] was determined as 270.

As to `CC1=NN(c2ccc(C(=O)NCc3cc[n+](Cc4ccccc4F)cc3)cc2)C(=O)C1` [Compound 5b, 1-[(2-Fluorophenyl)methyl]-4-({[4–(3-methyl-5-oxo-4H-pyrazol-1-yl)phenyl]foramido}methyl)pyridin-1-ium bromide], the results for the IC50 in experiment [1], in experiment [2] (setting [5]) and in experiment [3] were 1.2 µM, 28.8 µM and over 1000 µM, respectively.

`CC1=NN(c2ccc(C(=O)NCc3cc[n+](Cc4cccc(Br)c4)cc3)cc2)C(=O)C1` [Compound 5h, 1-[(3-Bromophenyl)methyl]-4-({[4–(3-methyl-5-oxo-4H-pyrazol-1-yl)phenyl]foramido}methyl)pyridin-1-ium bromide]: the IC50 is over 100 µM in experiment [1], 13.3 µM in experiment [2] (setting [5]) and over 1000 µM in experiment [3].

As for `Cc1c(C)c2c(c(C)c1O)CCC(C)(C(=O)O)O2` (centres unmarked) [Trolox, reference compound], in experiment [2] (setting [5]), the IC50 amounted to 13.1 µM.

For `CC1=NN(c2ccc(C(=O)NCc3cc[n+](Cc4ccc(C)cc4)cc3)cc2)C(=O)C1` [Compound 5l], the IC50 in experiment [1] was 95.5 µM; in experiment [2] (setting [5]), 14.5 µM; in experiment [3], over 1000 µM. The “SI AChE (AChE selectivity index = IC50(eqBuChE)/IC50(eeAChE))” value in experiment [1] is over 11.

In the case of `CC1=NN(c2ccccc2)C(=O)C1` [Edaravone], in experiment [4], the IC50 is 4.7 µM.

On to `CC1=NN(c2ccc(C(=O)NCc3cc[n+](Cc4ccccc4Cl)cc3)cc2)C(=O)C1` [Compound 5e, 1-[(2-Chlorophenyl)methyl]-4-({[4–(3-methyl-5-oxo-4H-pyrazol-1-yl)phenyl]foramido}methyl)pyridin-1-ium bromide], for which the IC50 was found to be 1.9 µM in experiment [1], 13.8 µM in experiment [2] (setting [5]) and 890 µM in experiment [3]. For the same compound, in experiment [1], the “SI AChE (AChE selectivity index = IC50(eqBuChE)/IC50(eeAChE))” value was determined as 468.

Take `CC1=NN(c2ccc(C(=O)NCc3cc[n+](Cc4ccccc4Br)cc3)cc2)C(=O)C1` [Compound 5g, 1-[(2-Bromophenyl)methyl]-4-({[4–(3-methyl-5-oxo-4H-pyrazol-1-yl)phenyl]foramido}methyl)pyridin-1-ium bromide]: the IC50 amounted to 3.5 µM in experiment [1]; 19 µM in experiment [2] (setting [5]); 19 µM in experiment [2] (supplement, dose response curves, read-out: Antioxidant activity (DPPH+) dose response curve IC50); 160 µM in experiment [3]. Besides, the “SI AChE (AChE selectivity index = IC50(eqBuChE)/IC50(eeAChE))” value in experiment [1] was determined as 46.
